T1: COMT (Homo sapiens, UniProt P21964)
T1 construct: made in house; host or cells: Escherichia coli DH5alphaF'Iq
T1 sequence (P21964 1-221 isoform P21964-2): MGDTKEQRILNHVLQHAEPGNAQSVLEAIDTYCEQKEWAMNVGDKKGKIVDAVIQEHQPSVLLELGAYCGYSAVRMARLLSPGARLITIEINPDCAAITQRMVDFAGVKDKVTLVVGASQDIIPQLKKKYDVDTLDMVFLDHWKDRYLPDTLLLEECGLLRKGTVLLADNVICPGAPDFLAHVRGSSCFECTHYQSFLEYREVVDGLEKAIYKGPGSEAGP


Legend:
[1] = molecular target: T1, COMT; test: Assay of COMT activity: methylation of catechol estrogens by purified recombinant His-COMT; assay type: biochemical; settings: for pattern of the rates of methylation versus substrate concentration: substrate of COMT, FIG. 9; for formation as product of COMT methylation of 4-OHE2 / 4-OHE1: GC/MS detection of product
Description: Assay of COMT Activity. Purified recombinant His-COMT (300 pmol) was reconstituted in 0.5 ml of 100 mM KPO4, pH 7.4, containing 5 mM MgCl2, 10 mM (β-mercaptoethanol, and 200 μM SAM. Reactions were initiated by adding varying concentrations of each individual catechol estrogen (2, 3, 6, 9, 12, 15, 20, 40, 60, 80, and 100 μM). Blanks contained all compounds except SAM. Reactions proceeded for 10 min at 37° C. with gentle shaking and then were terminated by addition of 2 ml CH2Cl2. To determine COMT activity in breast cancer cells, ZR-75 and MCF-7 cells were harvested at confluency and homogenized in 100 mM KP04, pH 7.4, 5 mM MgCl2, 10 mM β-mercaptoethanol. Following ultracentrifugation of the cell homogenate (110,000 g, 30 min, 4° C.), the supernatant cytosol was divided into aliquots for ICELISA, protein determination (BCA assay; Pierce, Rockford, Ill.), and COMT assay. The latter was carried out in the presence of 200 μM SAM and 100 μM catechol estrogen for 20 min at 37° C. and then terminated by addition of CH2Cl2. The concentration of endogenous catechol and methoxy estrogens was below the limit of detection by gas chromatography/mass spectrometry.
Extraction and Gas Chromatography/Mass Spectrometry Analysis of Catechol Estrogens. A deuterated internal standard (100 μl of 8 mg/liter E2-d4 in methanol) was added and all estrogens extracted into the CH2Cl2 by vortex mixing for 30 s. 1.5 ml of the CH2Cl2 fraction was evaporated to dryness under air and volatile TMS derivatives prepared by heating the residue with 100 μl of 50% NO-bis(trimethylsilyl)trifluoroacetamide/1% trimethyl chlorosilane in acetonitrile at 56° C. for 30 min. The TMS derivatives of the estrogen metabolites were separated by gas chromatography (H—P 5890, Hewlett-Packard, Wilmington, Del.) on a 5% phenyl methyl silicone stationary phase fused silica capillary column (30 m×0.2 mm×0.5 μm film, HP5; Hewlett-Packard). Helium carrier gas was used at a flow of 1 ml/min. The injector was operated at 250° C., with 2 μl injected in the splitless mode, with a purge (60 ml/min helium) time of 0.6 min. The oven temperature was held at 180° C. for 0.5 min, then raised at 6° C./min to 250° C. where it was held for 17 min, then raised to 300° C. at 8° C./min to give a total run time of 35.42 min. This program permitted adequate separation of a wide range of estrogen metabolites. Retention times (in min) for the TMS derivatives were E1 20.13, E2 and E2-d4 21.89, 4-MeOE1 23.52, 2-MeO-3-MeOE1 (underivatized) 23.75, 2-OH-3-MeOE1 24.87, 2-MeOE1 25.2, 4-MeOE2 25.78, 2-OHE1 and 2-MeO-3-MeOE2 26.19, 2-OH-3-MeOE2 26.9, 2-MeOE2 27.18, 4-OHE1 27.27, 6a-OHE2 27.29, 2-OHE2 27.44, 4-OHE2 28.06, E3 28.38. The E1 mass spectrometer (H—P 5970) was operated in the selected ion monitoring mode from 18 to 30 min. Ions monitored were TMS-E1 342, 257, 343; TMS2-E2-d4 420, 421, 287; TMS2-E2 416, 417, 285; TMS-4-MeOE1, TMS-2-OH-3-MeOE1, TMS-2-MeOE1 and TMS-3-MeO-4-OHE1 372, 373, 342; 2-MeO-3-MeOE1 314, 315, 229; TMS2-4-MeOE2, TMS2-2-OH-3-MeOE2, TMS2-2-MeOE2 and TMS2-3-MeO-4-OHE2 446, 447, 315; TMS2-2-OHE1 430, 431, 432; TMS-2-MeO-3-MeOE2 388, 389, 257; TMS2-4-OHE1 430, 431, 345; TMS2-6α-OHE2 414, 283, 309; TMS3-2-OHE2 and TMS3-4-OHE2 504, 505, 373; TMS3-E3 504, 505, 311 (FIG. 7). The instrument was calibrated by simultaneous preparation of an 11-point calibration over the range 0-22 nmol/tube of each compound. Sensitivity was determined to be between 0.02 and 0.04 nmol/tube (400-800 finol on column) for the various compounds. […] Absolute extraction efficiency for E2,2-OH-E2 and 4-OH-E2 at 3.5 nmol/tube was 119, 96, and 107% assessed by comparison to injections of spiked solvent samples onto the gas chromatograph. Internal standard added prior to extraction compensated for deviation from 100% recovery for all investigated compounds.
Statistical Analysis. […]

[2] = tested on: renal DNA; settings: hamster, in vivo; cited from earlier work
[3] = tested on: CYP1B1; test: Assay of CYP1B1 E2 hydroxylation activity (purified recombinant enzyme, GC/MS of products); assay type: biochemical, human; settings: E2 16a-hydroxylation
Description: Assay of CYP1B1 E2 Hydroxylation Activity. […] An NADPH-generating system consisting of 5 mM glucose 6-phosphate and 0.5 U of glucose-6-phosphate dehydrogenase/ml was added and reactions initiated by adding NADP+ to a final concentration of 0.5 mM. Reactions proceeded for 10 min at 37° C. with gentle shaking and then were terminated by addition of 2 ml CH2Cl2. Extraction and Gas Chromatography/Mass Spectrometry Analysis of E2 and Metabolites. […] Hewlett-Packard). Helium carrier gas was used at a flow of 1 ml/min. The injector was operated at 250° C., with […] injected in the splitless mode, with a purge (60 ml/min helium) time of 0.6 min. The oven temperature was held at 180° C. for 0.5 min, then raised at 6° C./min to 250° C. where it was held for 17 min, then raised to 300° C. at 8° C./min to give a total run time of 35.42 min. […] The E1 mass spectrometer (H-P 5970) was operated in the selected ion monitoring mode from 18 to 34 min. […] TMS2-E2 416, 285, 326; […]2 504, 373, 325; TMS3-16_-OH-E2 345, 311, 504. […] Internal standard added prior to extraction compensated for deviation from 100% recovery. Statistical Analysis. Kinetic parameters (Km and kcat) were determined by nonlinear regression analysis using the computer program GraphPad PRISM (San Diego, Calif.).

pattern of the rates of methylation versus substrate concentration [1]	Molecule	16a-OH-Estradiol kcat [3] [s⁻¹]	also measured
typical hyperbolic patterns	C[C@]12CC[C@@H]3c4cc(O)c(O)cc4CC[C@H]3[C@@H]1CCC2=O [Variant 2-OHE1]	–	–
typical hyperbolic patterns	C[C@]12CC[C@@H]3c4cc(O)c(O)cc4CC[C@H]3[C@@H]1CC[C@@H]2O [Variant 2-OHE2]	–	levels of the oxidized base 8-hydroxy-deoxyguanosine in renal DNA [2]: did not cause oxidative DNA damage
–	COc1ccc2c(c1O)CC[C@@H]1[C@@H]2CC[C@]2(C)C(=O)CC[C@@H]12 [Variant 3-MeO-4-OHE1]	–	formation as product of COMT methylation of 4-OHE2 / 4-OHE1 [1]: not observed
–	COc1ccc2c(c1O)CC[C@@H]1[C@@H]2CC[C@]2(C)[C@@H](O)CC[C@@H]12 [Variant 3-MeO-4-OHE2]	–	formation as product of COMT methylation of 4-OHE2 / 4-OHE1 [1]: not observed
sigmoid curve pattern	C[C@]12CC[C@@H]3c4ccc(O)c(O)c4CC[C@H]3[C@@H]1CCC2=O [Variant 4-OHE1]	–	levels of the oxidized base 8-hydroxy-deoxyguanosine in renal DNA [2]: significantly increased
–	Variant 4: recombinant CYP1B1 variant: 48Arg, 119Ala, 432Val, 453Ser (protein, UniProt Q16678 1-543, looked up, variant N453S) Cytochrome P450 1B1: MGTSLSPNDPWPLNPLSIQQTTLLLLLSVLATVHVGQRLLRQRRRQLRSAPPGPFAWPLIGNAAAVGQAAHLSFARLARRYGDVFQIRLGSCPIVVLNGERAIHQALVQQGSAFADRPAFASFRVVSGGRSMAFGHYSEHWKVQRRAAHSMMRNFFTRQPRSRQVLEGHVLSEARELVALLVRGSADGAFLDPRPLTVVAVANVMSAVCFGCRYSHDDPEFRELLSHNEEFGRTVGAGSLVDVMPWLQYFPNPVRTVFREFEQLNRNFSNFILDKFLRHCESLRPGAAPRDMMDAFILSAEKKAAGDSHGGGARLDLENVPATITDIFGASQDTLSTALQWLLLLFTRYPDVQTRVQAELDQVVGRDRLPCMGDQPNLPYVLAFLYEAMRFSSFVPVTIPHATTANTSVLGYHIPKDTVVFVNQWSVNHDPLKWPNPENFDPARFLDKDGLISKDLTSRVMIFSVGKRRCIGEELSKMQLFLFISILAHQCDFRANPNEPAKMNFSYGLTIKPKSFKVNVTLRESMELLDSAVQNLQAKETCQ	0.0065 ± 0.00033	–
–	Variant 2: recombinant CYP1B1 variant: 48Arg, 119Ser, 432Val, 453Asn (protein, UniProt Q16678 1-543, looked up, variant A119S) Cytochrome P450 1B1: MGTSLSPNDPWPLNPLSIQQTTLLLLLSVLATVHVGQRLLRQRRRQLRSAPPGPFAWPLIGNAAAVGQAAHLSFARLARRYGDVFQIRLGSCPIVVLNGERAIHQALVQQGSAFADRPSFASFRVVSGGRSMAFGHYSEHWKVQRRAAHSMMRNFFTRQPRSRQVLEGHVLSEARELVALLVRGSADGAFLDPRPLTVVAVANVMSAVCFGCRYSHDDPEFRELLSHNEEFGRTVGAGSLVDVMPWLQYFPNPVRTVFREFEQLNRNFSNFILDKFLRHCESLRPGAAPRDMMDAFILSAEKKAAGDSHGGGARLDLENVPATITDIFGASQDTLSTALQWLLLLFTRYPDVQTRVQAELDQVVGRDRLPCMGDQPNLPYVLAFLYEAMRFSSFVPVTIPHATTANTSVLGYHIPKDTVVFVNQWSVNHDPLKWPNPENFDPARFLDKDGLINKDLTSRVMIFSVGKRRCIGEELSKMQLFLFISILAHQCDFRANPNEPAKMNFSYGLTIKPKSFKVNVTLRESMELLDSAVQNLQAKETCQ	0.00567 ± 0.00033	–
–	Variant 1: recombinant CYP1B1 variant: 48Gly, 119Ala, 432Val, 453Asn (protein, UniProt Q16678 1-543, looked up, variant R48G) Cytochrome P450 1B1: MGTSLSPNDPWPLNPLSIQQTTLLLLLSVLATVHVGQRLLRQRRRQLGSAPPGPFAWPLIGNAAAVGQAAHLSFARLARRYGDVFQIRLGSCPIVVLNGERAIHQALVQQGSAFADRPAFASFRVVSGGRSMAFGHYSEHWKVQRRAAHSMMRNFFTRQPRSRQVLEGHVLSEARELVALLVRGSADGAFLDPRPLTVVAVANVMSAVCFGCRYSHDDPEFRELLSHNEEFGRTVGAGSLVDVMPWLQYFPNPVRTVFREFEQLNRNFSNFILDKFLRHCESLRPGAAPRDMMDAFILSAEKKAAGDSHGGGARLDLENVPATITDIFGASQDTLSTALQWLLLLFTRYPDVQTRVQAELDQVVGRDRLPCMGDQPNLPYVLAFLYEAMRFSSFVPVTIPHATTANTSVLGYHIPKDTVVFVNQWSVNHDPLKWPNPENFDPARFLDKDGLINKDLTSRVMIFSVGKRRCIGEELSKMQLFLFISILAHQCDFRANPNEPAKMNFSYGLTIKPKSFKVNVTLRESMELLDSAVQNLQAKETCQ	0.00933 ± 0.00067	–
–	Wild type: purified recombinant His-tagged wild type CYP1B1: 48Arg, 119Ala, 432Val, 453Asn (protein) HHHHHHLLSVLATVHVGQRLLRQRRRQLRSAPPGPFAWPLIGNAAAVGQAAHLSFARLARRYGDVFQIRLGSCPIVVLNGERAIHQALVQQGSAFADRPAFASFRVVSGGRSMAFGHYSEHWKVQRRAAHSMMRNFFTRQPRSRQVLEGHVLSEARELVALLVRGSADGAFLDPRPLTVVAVANVMSAVCFGCRYSHDDPEFRELLSHNEEFGRTVGAGSLVDVMPWLQYFPNPVRTVFREFEQLNRNFSNFILDKFLRHCESLRPGAAPRDMMDAFILSAEKKAAGDSHGGGARLDLENVPATITDIFGASQDTLSTALQWLLLLFTRYPDVQTRVQAELDQVVGRDRLPCMGDQPNLPYVLAFLYEAMRFSSFVPVTIPHATTANTSVLGYHIPKDTVVFVNQWSVNHDPLKWPNPENFDPARFLDKDGLINKDLTSRVMIFSVGKRRCIGEELSKMQLFLFISILAHQCDFRANPNEPAKMNFSYGLTIKPKSFKVNVTLRESMELLDSAVQNLQAKETCQ	0.005 ± 0.00033	16a-OH-Estradiol kcat ([3]; listed as Wild type CYP1B1): 0.005 ± 0.00033 s⁻¹; 16a-OH-Estradiol kcat ([3]; listed as wild type CYP1B1): 0.005 ± 0.00033 s⁻¹
